The values that follow come from publication PMC9304066, “H2S biogenesis by cystathionine beta-synthase: mechanism of inhibition by aminooxyacetic acid and unexpected role of serine” (Cellular and Molecular Life Sciences: CMLS, 2022).

The Kd is the free concentration of one partner at which half of the binding sites on the other are occupied at equilibrium, for simple one-to-one binding. In general, Vmax refers to the top rate of the reaction or transport when substrate is in excess. For orientation: kcat means the maximal rate divided by the concentration of active sites.

In experiment [1] the target is T1, tScCBS (Saccharomyces cerevisiae, UniProt P32582).
T1 construct: 6xHis (C); made in house
T1 sequence (P32582 1-345): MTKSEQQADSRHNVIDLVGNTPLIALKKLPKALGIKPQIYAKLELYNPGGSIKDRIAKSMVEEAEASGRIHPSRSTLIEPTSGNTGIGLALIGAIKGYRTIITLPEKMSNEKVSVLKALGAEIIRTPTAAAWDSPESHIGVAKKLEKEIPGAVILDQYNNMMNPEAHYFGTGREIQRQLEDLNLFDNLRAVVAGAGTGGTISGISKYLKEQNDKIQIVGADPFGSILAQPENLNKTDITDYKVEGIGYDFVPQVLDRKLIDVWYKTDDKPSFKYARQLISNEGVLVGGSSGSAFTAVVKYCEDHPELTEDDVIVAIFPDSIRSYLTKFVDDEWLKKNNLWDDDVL
The experiment in a line: UV-Vis absorption titration of tScCBS (dissociation constants). It is filed as binding. The note with it: tScCBS 1 mg/mL, pH 8.5; decrease in absorbance at 412 nm (AOAA), increase at 460 nm (Ser) or 440 nm (Cys); 3 min incubation; read-out: Dissociation constant Kd (UV-Vis absorption). Here is the method: (§1) CBS enzymes. Recombinant truncated Saccharomyces cerevisiae CBS lacking the C-terminal regulatory domain (residues 346–507) and carrying the C-terminal 6xHis tag (tScCBS) was prepared as described previously. Engineered recombinant Homo sapiens CBS lacking a loop protruding from the central β-strand of the CBS2 domain corresponding to the residues 516–525 (HsCBS; described in detail in [21]) was purchased from GenScript.
(§2) UV − Vis and fluorescence spectroscopy. Absorption spectra were collected on a Tecan Infinite M200 Pro spectrophotometer in a buffer containing 50 mM Tris–HCl pH 8.5, 20 mM NaCl and 0.5 mM tris(2-carboxyethyl)phosphine (TCEP). All the spectra were carried out with a protein concentration of 1 mg/mL with a 1 cm path-length quartz cuvette in a total volume of 150 µL. tScCBS was titrated directly in a cuvette by successive additions of different concentrations of AOAA, Ser and Cys, respectively, and spectra were recorded between 240 and 600 nm after an incubation time of 3 min at RT. Fluorescence emission spectra were collected under the same conditions upon PLP excitation at 410 nm. Blank spectra were subtracted from sample spectra.

Experiment [2] deals with T1, tScCBS. Briefly: Fluorescence emission titration of tScCBS (PLP excitation at 410 nm). The experiment is classed as binding. The settings on record: tScCBS 1 mg/mL, pH 8.5; decrease in emission at 520 nm, excitation 410 nm; read-out: Dissociation constant Kd (fluorescence). The protocol:
as §1, §2

For experiment [3], the target named is T1, tScCBS. Briefly: Kinetics of AOAA binding to tScCBS and displacement by substrate, followed by absorption spectra. The note with it: in the presence of Cys, data not shown. Here is the method: as §2
Fig. 2 Spectroscopic rescue of AOAA-inhibited tScCBS by Ser. A Changes in the absorption spectra of tScCBS upon addition of 20 µM AOAA (cyan lines) followed for 1 h. Subsequently, 1 mM Ser (gray lines) was added and spectral changes were followed for additional 1 h. B Representative kinetic fitting of AOAA binding to tScCBS followed at 412 nm. C Representative kinetic fitting of AOAA displacement from tScCBS by Ser by following changes at 370 nm and 460 nm. The kinetic parameters of the observed processes are shown as insets in panels B and C. Far-UV (D) and near-UV (E) CD spectra of tScCBS (black), tScCBS complexed with 20 µM AOAA (cyan) or 1 mM Ser (magenta) and tScCBS complexed with 20 µM AOAA followed by 1 h incubation with 1 mM Ser (green).

Experiment [4] has as its target T1, tScCBS. Briefly: CBS H2S production assay (AzMC fluorometric), tScCBS. The experiment is classed as biochemical. The settings on record: tScCBS; AzMC assay. The protocol:
(§3) CBS H2S production assay. H2S-producing activity of CBS, utilizing Cys and Hcy, was determined using a fluorometric assay employing the H2S-selective fluorescent probe 7-azido-4-methylcoumarin (AzMC) as described previously. The reaction mixture in a total volume of 200 µL contained 50 mM Tris–HCl pH 8.6, 5 μM PLP, 2 mM Hcy, 10 μM AzMC and 500 ng tScCBS or HsCBS. The plate was incubated for 10 min at 37°C and the enzymatic activity was triggered by adding 0–50 mM Cys. The fluorescence of the mixtures at 450 nm (excited at 365 nm) was followed for 2 h at 37°C. All measurements were performed in triplicates using Tecan Infinite 200 PRO microplate reader. Kinetic data were analyzed using GraphPad Prism software.

The target in experiment [5] is T2, HsCBS (Homo sapiens, UniProt P35520, DEL516-525).
T2 construct: purchased GenScript
T2 sequence (P35520 with tags, fused parts or gaps DEL516-525): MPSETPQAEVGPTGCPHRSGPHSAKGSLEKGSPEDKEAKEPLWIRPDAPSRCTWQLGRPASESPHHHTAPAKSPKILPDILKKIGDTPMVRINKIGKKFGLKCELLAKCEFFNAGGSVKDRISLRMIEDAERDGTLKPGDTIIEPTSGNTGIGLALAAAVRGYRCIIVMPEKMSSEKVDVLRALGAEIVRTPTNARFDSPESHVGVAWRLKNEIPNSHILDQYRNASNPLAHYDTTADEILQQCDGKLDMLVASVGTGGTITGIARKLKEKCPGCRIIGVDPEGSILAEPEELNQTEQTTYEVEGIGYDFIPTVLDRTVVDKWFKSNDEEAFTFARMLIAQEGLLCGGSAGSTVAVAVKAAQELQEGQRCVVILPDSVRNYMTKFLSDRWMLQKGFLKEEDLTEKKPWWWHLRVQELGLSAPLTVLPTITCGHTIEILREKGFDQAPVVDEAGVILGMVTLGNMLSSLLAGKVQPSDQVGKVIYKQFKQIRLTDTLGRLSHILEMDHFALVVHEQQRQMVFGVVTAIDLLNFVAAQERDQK
Briefly: CBS H2S production assay (AzMC fluorometric), HsCBS. It is filed as biochemical. The note with it: AzMC assay. Here is the method: as §3

In experiment [6] the target is T1, tScCBS. The experiment in a line: CBL-LDH coupled-coupled CBS assay, tScCBS. The settings on record: tScCBS; CBL-LDH coupled-coupled assay. The experiment is classed as biochemical. The protocol: (§4) CBS coupled-coupled assay. CBS canonical activity utilizing Ser and Hcy was determined using cystathionine beta-lyase (CBL) and lactate-dehydrogenase (LDH) coupled-coupled assay as described previously with a few modifications. Native L-LDH from rabbit muscle was purchased from Sigma (catalog no. L2500) and recombinant CBL was purchased from Creative Enzymes (catalog no. NATE-1146). In a final volume of 150 µL, the reaction mixture contained 50 mM Tris–HCl pH 8.9, 20 µM PLP, 500 µM NADH, 1.3 µM LDH, 0.1 µM CBL, 0–20 mM Ser (or 0–50 mM Cys) and 500 ng of tScCBS or HsCBS. Assays with HsCBS were carried out in the absence or presence of 500 µM CBS allosteric activator S-adenosylmethionine (SAM). The reaction was triggered by the addition of 2 mM Hcy and the oxidation of NADH to NAD^+ was followed by monitoring the decrease in absorbance at 340 nm over time (ε340 = 6220 M^−1.cm^−1). […] All measurements were performed in triplicates using Tecan Infinite 200 PRO microplate reader. Kinetic data were analyzed using GraphPad Prism software.

Experiment [7] concerns the target T2, HsCBS. Briefly: CBL-LDH coupled-coupled CBS assay, HsCBS. It is filed as biochemical. The note with it: CBL-LDH coupled-coupled assay. Here is the method: as §4

Values joined by “and” are separate entries in the source; they are usually repeats but may differ in a detail not shown here. Equal entries are not always repeated.

`N[C@@H](CS)C(=O)O` [Cys, cysteine]: the Kd at tScCBS [1] was ~58 µM and 57.3 µM; at tScCBS [2] it was 48.9 ± 14.6 µM. At tScCBS [3], the “Displacement of AOAA from the tScCBS active site” value is reported as “did not occur”. Besides, the Vmax at tScCBS [4] was 317.0 ± 24.1 µmol/h/mg; at HsCBS [5] (HsCBS + SAM), 113.3 ± 4.0 µmol/h/mg; on HsCBS [5] (HsCBS – SAM) it was 30.8 ± 1.9 µmol/h/mg; on tScCBS [6], 161.5 ± 4.5 µmol/h/mg; at HsCBS [7] (HsCBS + SAM) it was 97.2 ± 7.1 µmol/h/mg; on HsCBS [7] (HsCBS – SAM), 20.1 ± 1.7 µmol/h/mg. Besides, the kcat on tScCBS [4] worked out at 3.4 ± 0.3 s⁻¹; on HsCBS [5] (HsCBS + SAM) it was 1.93 ± 0.06 s⁻¹; at HsCBS [5] (HsCBS – SAM), 0.52 ± 0.04 s⁻¹; at tScCBS [6], 1.7 ± 0.1 s⁻¹; on HsCBS [7] (HsCBS + SAM) it was 1.66 ± 0.03 s⁻¹; on HsCBS [7] (HsCBS – SAM) it was 0.34 ± 0.02 s⁻¹.
